# Laboratory results: ChEMBL document CHEMBL1148958, “Antibacterial activity of naphthoquinones and triterpenoids from Euclea natalensis root bark” (J Nat Prod, 2004)
# The source made the active and inactive calls. No cut-off for these calls is given here.
# Assays:
# Assay type in all cases: functional, organism-based
# [1] = system: Bacillus pumilus; experiment: Antibacterial activity against Bacillus pumilus ATCC 27142 at 0.1 mg/ml by agar plate method
# [2] = system: Bacillus subtilis; experiment: Antibacterial activity against Bacillus subtilis ATCC 6633 at 0.1 mg/ml by agar plate method
# [3] = system: Staphylococcus aureus; experiment: Antibacterial activity against Staphylococcus aureus ATCC 25923 at 0.1 mg/ml by agar plate method
# [4] = system: Enterococcus faecalis; experiment: Antibacterial activity against Streptococcus faecalis at 0.1 mg/ml by agar plate method
# [5] = system: Mycobacterium tuberculosis; experiment: Antimycobacterial activity against Mycobacterium tuberculosis H37Rv at 0.1 mg/ml by rapid radiometric method
# [6] = system: Bacillus pumilus; experiment: Antibacterial activity against Bacillus pumilus ATCC 27142 at 0.01 mg/ml by agar plate method
# [7] = system: Bacillus subtilis; experiment: Antibacterial activity against Bacillus subtilis ATCC 6633 at 0.01 mg/ml by agar plate method
# [8] = system: Staphylococcus aureus; experiment: Antibacterial activity against Staphylococcus aureus ATCC 25923 at 0.01 mg/ml by agar plate method
# [9] = system: Enterococcus faecalis; experiment: Antibacterial activity against Streptococcus faecalis at 0.01 mg/ml by agar plate method
# [10] = system: Bacillus cereus; experiment: Antibacterial activity against Bacillus cereus at 0.01 mg/ml by agar plate method
# [11] = system: Enterobacter cloacae; experiment: Antibacterial activity against Enterobacter cloacae ATCC 13047 at 0.01 mg/ml by agar plate method
# [12] = system: Escherichia coli; experiment: Antibacterial activity against Escherichia coli ATCC 25922 at 0.01 mg/ml by agar plate method
# [13] = system: Klebsiella pneumoniae; experiment: Antibacterial activity against Klebsiella pneumoniae ATCC 10031 at 0.01 mg/ml by agar plate method
# [14] = system: Pantoea agglomerans; experiment: Antibacterial activity against Pantoea agglomerans ATCC 27155 at 0.01 mg/ml by agar plate method
# [15] = system: Pseudomonas aeruginosa; experiment: Antibacterial activity against Pseudomonas aeruginosa ATCC 27853 at 0.05 mg/ml by agar plate method
# [16] = system: Serratia marcescens; experiment: Antibacterial activity against Serratia marcescens ATCC 13880 at 0.1 mg/ml by agar plate method
# [17] = system: Mycobacterium tuberculosis; experiment: Antimycobacterial activity against Mycobacterium tuberculosis H37Rv at 0.004 mg/ml by rapid radiometric method
# [18] = system: Mycobacterium tuberculosis; experiment: Antimycobacterial activity against Mycobacterium tuberculosis H37Rv at 0.006 mg/ml by rapid radiometric method
compound,measurement,setting,value
C=C(C)[C@@H]1CC[C@]2(C)CC[C@]3(C)[C@@H](CC[C@@H]4[C@@]5(C)CC[C@H](OC(=O)/C=C/c6ccc(OC)c(O)c6)C(C)(C)[C@@H]5CC[C@]43C)[C@H]12,Activity,[1],Active
Cc1cc(O)c2c(c1)[C@H](O)CCC2=O,Activity,[1],Active
same,Activity,[2],Active
same,Activity,[3],Active
same,Activity,[4],Active
same,Activity,[5],Active
Cc1cc(O)c2c(c1)C(=O)C[C@H](c1c(C)cc3c(c1O)C(=O)CCC3O)[C@@H]2O (stereo not given in full),Activity,[1],inactive
CN[C@@H]1[C@H](O[C@H]2[C@H](O[C@H]3[C@H](O)[C@@H](O)[C@H](N=C(N)N)[C@@H](O)[C@@H]3N=C(N)N)O[C@@H](C)[C@]2(O)C=O)O[C@@H](CO)[C@H](O)[C@H]1O,Activity,[6],Active
same,Activity,[7],Active
same,Activity,[8],Active
same,Activity,[9],Active
same,Activity,[10],Active
same,Activity,[11],Active
same,Activity,[12],Active
same,Activity,[13],Active
same,Activity,[14],Active
same,Activity,[15],Active
same,Activity,[16],Active
same,Activity,[17],Active
CC[C@@H](CO)NCCN[C@@H](CC)CO,Activity,[18],Active
